Data published in US10918728B2, “Compositions and methods for increasing efficiency of cardiac metabolism” (IMBRIA PHARMACEUTICALS, INC., priority 2017, dated 2021).

Assay: Stability of CV-8972 in aqueous solution at different concentrations and pH
Assay type: physicochemical
Procedure: The stability of CV-8972 was analyzed. Aqueous samples containing CV-8972 at different concentrations and pH were incubated for various periods and analyzed.
Form A of CV-8972 were analyzed for stability in aqueous solution. Aqueous samples containing CV-8972 at different concentrations and pH were incubated for various periods and analyzed.

COc1ccc(CN2CCN(CCOC(=O)c3cccnc3)CC2)c(OC)c1OC.Cl.O [276-MBA-172]
Retention Time 5.6 (CV-8972 purity) (2 mg/mL pH 6 (Form A), 1 hrs, PH 6.1): 97.22 | Retention Time 5.6 (CV-8972 purity) (2 mg/mL pH 6 (Form A), 4 hrs, PH 6.1): 97.01 | Retention Time 5.6 (CV-8972 purity) (2 mg/mL pH 6 (Form A), 6 hrs, PH 6.1): 96.51 | Retention Time 5.6 (CV-8972 purity) (2 mg/mL pH 7 (Form A), 1 hrs, PH 6.8): 95.06 | Retention Time 5.6 (CV-8972 purity) (2 mg/mL pH 7 (Form A), 4 hrs, PH 6.7): 93.7 | Retention Time 5.6 (CV-8972 purity) (2 mg/mL pH 7 (Form A), 6 hrs, PH 6.7): 92.12 | Retention Time 5.6 (CV-8972 purity) (2 mg/mL pH 7 (Form A), 22 hrs, PH 6.8): 91.07 | Retention Time 5.6 (CV-8972 purity) (10 mg/mL pH 6 (Form A), 1 hrs, PH 6.8): 93.43 | Retention Time 5.6 (CV-8972 purity) (10 mg/mL pH 6 (Form A), 4 hrs, PH 6.8): 91.82 | Retention Time 5.6 (CV-8972 purity) (10 mg/mL pH 6 (Form A), 6 hrs, PH 6.7): 91.8 | Retention Time 5.6 (CV-8972 purity) (10 mg/mL pH 6 (Form A), 22 hrs, PH 6.7): 89.66 | Retention Time 5.6 (CV-8972 purity) (10 mg/mL pH 7 (Form A), 1 hrs, PH 7.2): 89.05 | Retention Time 5.6 (CV-8972 purity) (10 mg/mL pH 7 (Form A), 4 hrs, PH 7.1): 86.8 | Retention Time 5.6 (CV-8972 purity) (10 mg/mL pH 7 (Form A), 6 hrs, PH 7.1): 84.79

COc1ccc(CN2CCN(CCOC(=O)c3cccnc3)CC2)c(OC)c1OC.Cl.O [289-MBA-15-A]
Retention Time 5.6 (CV-8972 purity) (2 mg/mL pH 6 (Form B), 1 hrs, PH 6.9): 95.1 | Retention Time 5.6 (CV-8972 purity) (2 mg/mL pH 6 (Form B), 4 hrs, PH 6.8): 92.45 | Retention Time 5.6 (CV-8972 purity) (2 mg/mL pH 6 (Form B), 6 hrs, PH 6.8): 90.65 | Retention Time 5.6 (CV-8972 purity) (2 mg/mL pH 6 (Form B), 22 hrs, PH 6.7): 89.15 | Retention Time 5.6 (CV-8972 purity) (2 mg/mL pH 7 (Form B), 1 hrs, PH 6.6): 95.46 | Retention Time 5.6 (CV-8972 purity) (2 mg/mL pH 7 (Form B), 4 hrs, PH 6.5): 93.92 | Retention Time 5.6 (CV-8972 purity) (10 mg/mL pH 6 (Form B), 1 hrs, PH 6.1): 94.81 | Retention Time 5.6 (CV-8972 purity) (10 mg/mL pH 6 (Form B), 4 hrs, PH 6): 94.69 | Retention Time 5.6 (CV-8972 purity) (10 mg/mL pH 6 (Form B), 6 hrs, PH 5.9): 94.39 | Retention Time 5.6 (CV-8972 purity) (10 mg/mL pH 6 (Form B), 22 hrs, PH 5.9): 93.93 | Retention Time 5.6 (CV-8972 purity) (10 mg/mL pH 7 (Form B), 1 hrs, PH 7.4): 86.18 | Retention Time 5.6 (CV-8972 purity) (10 mg/mL pH 7 (Form B), 4 hrs, PH 7.4): 82.36 | Retention Time 5.6 (CV-8972 purity) (10 mg/mL pH 7 (Form B), 6 hrs, PH 7.3): 79.37
